From US9981916B2 (Genentech, Inc., priority 2013, dated 2018)

target: T1, RORc ligand binding domain (Homo sapiens, UniProt P51449); experiment: In vitro RORc ligand binding assay (25-[3H]hydroxycholesterol displacement, filter binding); settings: 6 nM 25-[3H]hydroxycholesterol, 0.6 ug/mL RORc receptor, 3 h at 25° C.
T1 construct: host or cells: E. coli
T1 sequence (P51449 269-508 limits assumed): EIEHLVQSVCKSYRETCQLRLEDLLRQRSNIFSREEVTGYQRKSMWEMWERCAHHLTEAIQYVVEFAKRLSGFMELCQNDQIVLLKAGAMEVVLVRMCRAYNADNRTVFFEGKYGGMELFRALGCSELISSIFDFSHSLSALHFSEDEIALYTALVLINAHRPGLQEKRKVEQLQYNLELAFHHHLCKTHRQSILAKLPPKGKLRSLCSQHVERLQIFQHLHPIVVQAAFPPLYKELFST
How it was run: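 Filter-binding displacement of 6 nM 25-[3H]hydroxycholesterol from RORc receptor (0.6 ug/mL) in 50 mM HEPES pH 7.4, 150 mM NaCl, 5 mM MgCl2, 1 mM DTT, 0.01% BSA, 5% DMSO; 3 h at 25° C. NSB defined with 1 uM 25-hydroxycholesterol; scintillation counting gave Kiapp, IC50 or % inhibition (screening at 1 and 10 uM).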

SMILES	IC50
CC1(C)[C@H]2CC[C@]1(CN(CCC#N)C(N)=O)c1nnc(-c3c(F)cccc3F)cc12 [Example 310, 1-(2-cyanoethyl)-1-(((5R,8S)-3-(2,6-difluorophenyl)-9,9-dimethyl-5,6,7,8-tetrahydro-5,8-methanocinnolin-8-yl)methyl)urea]	363 nM
CC1(C)[C@H]2CC[C@]1(C)c1nnc(Oc3c(F)cccc3Cl)cc12 [Example 97, (5R,8S)-3-(2-chloro-6-fluorophenoxy)-8,9,9-trimethyl-5,6,7,8-tetrahydro-5,8-methanocinnoline]	87 nM
Cc1cnc([C@@]23CC[C@@H](c4cc(-c5c(F)cccc5F)nnc42)C3(C)C)o1 [Example 112, (5R,8R)-3-(2,6-difluorophenyl)-9,9-dimethyl-8-(5-methyl-1,3-oxazol-2-yl)-5,6,7,8-tetrahydro-5,8-methanocinnoline]	27 nM
Cc1cc([C@@]23CC[C@@H](c4cc(-c5c(F)cccc5F)nnc42)C3(C)C)[nH]n1 [Example 191, (5R,8S)-3-(2,6-difluorophenyl)-9,9-dimethyl-8-(3-methyl-1H-pyrazol-5-yl)-5,6,7,8-tetrahydro-5,8-methanocinnoline]	123 nM
CC1(C)[C@H]2CC[C@]1(N1CCCC1=O)c1nnc(-c3c(F)cccc3F)cc12 [Example 109, 1-[(5R,8R)-3-(2,6-difluorophenyl)-9,9-dimethyl-6,7-dihydro-5,8-methanocinnolin-8(5H)-yl]pyrrolidin-2-one]	201 nM
C[C@H]1CN(C[C@@]23CC[C@@H](c4cc(-c5c(F)cccc5F)nnc42)C3(C)C)C(=O)O1 [Example 315, (S)-3-(((5R,8S)-3-(2,6-difluorophenyl)-9,9-dimethyl-5,6,7,8-tetrahydro-5,8-methanocinnolin-8-yl)methyl)-5-methyloxazolidin-2-one]	350 nM
CC1(C)[C@@H]2CC[C@@]1(C(=O)N1CC(CO)C1)c1nnc(-c3c(F)cccc3F)cc12 [Example 233, ((5S,8S)-3-(2,6-difluorophenyl)-9,9-dimethyl-5,6,7,8-tetrahydro-5,8-methanocinnolin-8-yl)(3-(hydroxymethyl)azetidin-1-yl)methanone]	819 nM
CC1(C)[C@H]2CC[C@]1(c1nnc(CO)o1)c1nnc(-c3c(F)cccc3F)cc12 [Example 68, {5-[(5R,8R)-3-(2,6-difluorophenyl)-9,9-dimethyl-6,7-dihydro-5,8-methanocinnolin-8(5H)-yl]-1,3,4-oxadiazol-2-yl}methanol]	116 nM
Cc1nnc(OC[C@@]23CC[C@@H](c4cc(-c5c(F)cccc5F)nnc42)C3(C)C)o1 [Example 143, 2-(((5R,8R)-3-(2,6-difluorophenyl)-9,9-dimethyl-5,6,7,8-tetrahydro-5,8-methanocinnolin-8-yl)methoxy)-5-methyl-1,3,4-oxadiazole]	286 nM
CC1(C)[C@@H]2CC[C@@]1(N1CCOC1=O)c1nnc(-c3c(F)cccc3F)cc12 [Example 254, 3-((5S,8S)-3-(2,6-difluorophenyl)-9,9-dimethyl-5,6,7,8-tetrahydro-5,8-methanocinnolin-8-yl)oxazolidin-2-one]	866 nM
CCN(C[C@@]12CC[C@@H](c3cc(-c4c(F)cccc4F)nnc31)C2(C)C)C(=O)CC#N [Example 160, 2-cyano-N-(((5R,8S)-3-(2,6-difluorophenyl)-9,9-dimethyl-5,6,7,8-tetrahydro-5,8-methanocinnolin-8-yl)methyl)-N-ethylacetamide]	27 nM
CC1(C)[C@H]2CC[C@]1(C(=O)Nc1ccccc1C#N)c1nnc(-c3ccccc3F)cc12 [Example 171, (5R,8R)-N-(2-cyanophenyl)-3-(2-fluorophenyl)-9,9-dimethyl-5,6,7,8-tetrahydro-5,8-methanocinnoline-8-carboxamide]	3380 nM
CCNC(=O)N(CC)C[C@@]12CC[C@@H](c3cc(-c4c(F)cccc4F)nnc31)C2(C)C [Example 288, 1-(((5R,8S)-3-(2,6-difluorophenyl)-9,9-dimethyl-5,6,7,8-tetrahydro-5,8-methanocinnolin-8-yl)methyl)-1,3-diethylurea]	21 nM
CC1(C)[C@@H]2CC[C@@]1(C(=O)N1C3CCC1CC(O)C3)c1nnc(-c3c(F)cccc3F)cc12 (stereo partly drawn) [Example 261, ((5S,8S)-3-(2,6-difluorophenyl)-9,9-dimethyl-5,6,7,8-tetrahydro-5,8-methanocinnolin-8-yl)(3-hydroxy-8-azabicyclo[3.2.1]octan-8-yl)methanone]	1140 nM
Cc1nnc(N(C[C@@]23CC[C@@H](c4cc(-c5c(F)cccc5F)nnc42)C3(C)C)C(C)C)o1 [Example 152, N-(((5R,8S)-3-(2,6-difluorophenyl)-9,9-dimethyl-5,6,7,8-tetrahydro-5,8-methanocinnolin-8-yl)methyl)-N-isopropyl-5-methyl-1,3,4-oxadiazol-2-amine]	19 nM
Cc1nnc([C@@]23CC[C@@H](c4cc(Oc5c(F)cccc5F)nnc42)C3(C)C)o1 [Example 336, 2-((5R,8R)-3-(2,6-difluorophenoxy)-9,9-dimethyl-5,6,7,8-tetrahydro-5,8-methanocinnolin-8-yl)-5-methyl-1,3,4-oxadiazole]	49 nM
CC1(C)[C@@H]2CC[C@@]1(C(=O)N1CC3CC1C3)c1nnc(-c3c(F)cccc3F)cc12 [Example 214, 2-azabicyclo[2.1.1]hexan-2-yl((5S,8S)-3-(2,6-difluorophenyl)-9,9-dimethyl-5,6,7,8-tetrahydro-5,8-methanocinnolin-8-yl)methanone]	220 nM
CC1(C)[C@@H]2CC[C@@]1(CNCC(F)F)c1nnc(-c3c(F)cccc3F)cc12 [Example 328, N-(((5S,8R)-3-(2,6-difluorophenyl)-9,9-dimethyl-5,6,7,8-tetrahydro-5,8-methanocinnolin-8-yl)methyl)-2,2-difluoroethanamine]	74 nM
Cc1ncoc1[C@@]12CC[C@@H](c3cc(-c4c(F)cccc4F)nnc31)C2(C)C [Example 118, (5R,8R)-3-(2,6-difluorophenyl)-9,9-dimethyl-8-(4-methyl-1,3-oxazol-5-yl)-5,6,7,8-tetrahydro-5,8-methanocinnoline]	134 nM
CC(C)(C#N)NC(=O)[C@@]12CC[C@@H](c3cc(-c4ccccc4F)nnc31)C2(C)C [Example 174, (5R,8R)-N-(2-cyanopropan-2-yl)-3-(2-fluorophenyl)-9,9-dimethyl-5,6,7,8-tetrahydro-5,8-methanocinnoline-8-carboxamide]	3080 nM
CC1(C)[C@H]2CC[C@]1(CNCC(F)F)c1nnc(-c3c(F)cccc3F)cc12 [Example 291, N-(((5R,8S)-3-(2,6-difluorophenyl)-9,9-dimethyl-5,6,7,8-tetrahydro-5,8-methanocinnolin-8-yl)methyl)-2,2-difluoroethanamine]	149 nM
CC1(C)[C@H]2CC[C@]1(CO)c1nnc(Oc3c(F)cccc3F)cc12 [Example 145, ((5R,8R)-3-(2,6-difluorophenoxy)-9,9-dimethyl-5,6,7,8-tetrahydro-5,8-methanocinnolin-8-yl)methanol]	2000 nM
Cc1nc(C[C@@]23CC[C@@H](c4cc(-c5c(F)cccc5F)nnc42)C3(C)C)no1 [Example 59, (5R,8R)-3-(2,6-difluorophenyl)-9,9-dimethyl-8-[(5-methyl-1,2,4-oxadiazol-3-yl)methyl]-5,6,7,8-tetrahydro-5,8-methanocinnoline]	106 nM
CN(C)C(=O)[C@@]12CC[C@@H](c3cc(-c4c(F)cccc4F)nnc31)C2(C)C [Example 82, (5R,8R)-3-(2,6-difluorophenyl)-N,N,9,9-tetramethyl-6,7-dihydro-5,8-methanocinnoline-8(5H)-carboxamide]	856 nM
COCC1CN(C(=O)[C@@]23CC[C@@H](c4cc(-c5c(F)cccc5F)nnc42)C3(C)C)C1 [Example 137, ((5R,8R)-3-(2,6-difluorophenyl)-9,9-dimethyl-5,6,7,8-tetrahydro-5,8-methanocinnolin-8-yl)(3-(methoxymethyl)azetidin-1-yl)methanone]	182 nM
CC1(C)[C@@H]2CC[C@@]1(C(=O)N1CCCC1C(F)(F)F)c1nnc(-c3c(F)cccc3F)cc12 (stereo partly drawn) [Example 224, ((5S,8S)-3-(2,6-difluorophenyl)-9,9-dimethyl-5,6,7,8-tetrahydro-5,8-methanocinnolin-8-yl)(2-(trifluoromethyl)pyrrolidin-1-yl)methanone]	327 nM
CCN(C[C@@]12CC[C@@H](c3cc(-c4c(F)cccc4F)nnc31)C2(C)C)c1nnc(C)o1 [Example 148, N-(((5R,8S)-3-(2,6-difluorophenyl)-9,9-dimethyl-5,6,7,8-tetrahydro-5,8-methanocinnolin-8-yl)methyl)-N-ethyl-5-methyl-1,3,4-oxadiazol-2-amine]	19 nM
Cc1nc([C@@]23CC[C@@H](c4cc(-c5c(F)cccc5F)nnc42)C3(C)C)co1 [Example 192, 4-((5R,8S)-3-(2,6-difluorophenyl)-9,9-dimethyl-5,6,7,8-tetrahydro-5,8-methanocinnolin-8-yl)-2-methyloxazole]	202 nM
COC1CCN(C(=O)[C@@]23CC[C@@H](c4cc(-c5ccccc5F)nnc42)C3(C)C)CC1 [Example 173, ((5R,8R)-3-(2-fluorophenyl)-9,9-dimethyl-5,6,7,8-tetrahydro-5,8-methanocinnolin-8-yl)(4-methoxypiperidin-1-yl)methanone]	2470 nM
Cc1nnc(NC(=O)[C@]23CC[C@H](c4cc(-c5c(F)cccc5F)nnc42)C3(C)C)o1 [Example 84, (5S,8S)-3-(2,6-difluorophenyl)-9,9-dimethyl-N-(5-methyl-1,3,4-oxadiazol-2-yl)-6,7-dihydro-5,8-methanocinnoline-8(5H)-carboxamide]	1010 nM
